In brackets after ≈: the same amount, converted by molar mass.
Assays:
[1] = incubation 0.5h, UV; table
[2] = in vitro; details: human, microsomes
[3] = physchem; details: phosphate buffer, pH 7.4
[4] = format: in vitro ADME; details: RED assay
[5] = in vitro; details: human, plasma
[6] = tested on: NALM16 leukaemia cells; assay: Cancer cell viability, CellTiter-Glo, NALM16; format: cell-based; details: NALM16, 72 h, read-out: NALM16, IC50
[7] = in vitro; details: human; for Papp B→A: Caco-2; for Papp: Caco-2, Caco2 A/B (Papp), A to B
[8] = biological target: BRD2 (BD1) (Homo sapiens, UniProt P25440); assay: TR-FRET binding assay, BRD2
[9] = biological target: BRD2(BD2) (Homo sapiens, UniProt P25440); assay: TR-FRET binding assay, BRD2
[10] = biological target: BRD4(BD2) (Homo sapiens, UniProt O60885); assay: TR-FRET binding assay, BRD4
[11] = tested on: D283 medulloblastoma cells; assay: Cancer cell viability, CellTiter-Glo, D283; format: cell-based; details: D283, 72 h, read-out: D283, IC50
[12] = incubation up to 48h
[13] = tested on: BET isoforms; assay: BROMOscan profiling; details: all BET isoforms (Figure S2)
[14] = tested on: HDMB03 medulloblastoma cells; assay: cells; format: cell-based; details: Homo sapiens, HD-MB03, 72 h, read-out: HDMB03, IC50
[15] = In vivo pharmacokinetic study in female CD1 mice; details: P.O. 3mg/kg and 10mg/kg
[16] = biological target: BRD4 (BD1) (Homo sapiens, UniProt O60885); assay: TR-FRET binding assay, BRD4
[17] = tested on: MYC; assay: MYC protein abundance by immunoblotting in MV4-11; format: cell-based; details: MV4–11, 6 hours incubation, 100 nM
[18] = tested on: MOLM-13 acute leukaemia cells; assay: Cancer cell viability, CellTiter-Glo, MOLM-13; format: cell-based; details: Homo sapiens, MOLM-13, 72 h, read-out: MOLM-13, IC50

BRD2 (BD1), sequence (P25440 74-180 limits assumed): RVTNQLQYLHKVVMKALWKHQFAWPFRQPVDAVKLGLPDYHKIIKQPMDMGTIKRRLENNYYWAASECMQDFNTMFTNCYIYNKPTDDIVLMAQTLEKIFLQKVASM
BRD2(BD2), sequence (P25440 344-453 limits assumed): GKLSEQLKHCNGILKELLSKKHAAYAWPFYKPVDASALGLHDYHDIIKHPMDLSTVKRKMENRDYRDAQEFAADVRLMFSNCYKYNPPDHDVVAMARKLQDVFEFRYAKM

SMILES | PAMPA [1] | half-life [2] | solubility at 18 h [3] | PB (human plasma binding) [4] | IC50 [6] | also measured
Cc1sc2c(c1C)C(c1ccc(Cl)cc1)=N[C@@H](CC(=O)NCc1cn(C)cn1)c1nnc(C)n1-2 [1f] | 0.0 10^−6cm/s | 0.5 h | 65.7 µM (≈ 32.5 µg/mL) |  |  | 
Cc1sc2c(c1C)C(c1ccc(Cl)cc1)=N[C@@H](CC(=O)NCc1ccon1)c1nnc(C)n1-2 [1h] |  |  |  | 93.5% |  | 
Cc1sc2c(c1C)C(c1ccc(Cl)cc1)=N[C@@H](CC(=O)NCc1ccccn1)c1nnc(C)n1-2 [1k] |  | 0.1 h | 72.5 µM (≈ 35.6 µg/mL) |  | 14.8 nM | half-life [5]: > 100 h; Papp B→A [7]: 56.8 ×10⁻⁶ cm/s; Papp [7]: 9.84 ×10⁻⁶ cm/s
Cc1sc2c(c1C)C(c1ccc(Cl)cc1)=N[C@@H](CC(=O)Nc1nccs1)c1nnc(C)n1-2 [1o] |  | 1.1 h | 12.4 µM (≈ 5.99 µg/mL) | 98.2% | 6.4 nM | IC50 [8]: 10.9 nM; IC50 [9]: 2.6 nM; Papp B→A [7]: 4.11 ×10⁻⁶ cm/s; Papp [7]: 1.91 ×10⁻⁶ cm/s
Cc1sc2c(c1C)C(c1ccc(Cl)cc1)=N[C@@H](CC(=O)NCc1cn(C)nn1)c1nnc(C)n1-2 [1e] | 14.0 10^−6cm/s | 0.5 h | 80.8 µM (≈ 40 µg/mL) |  |  | 
Cc1sc2c(c1C)C(c1ccc(Cl)cc1)=N[C@@H](CC(=O)NCc1ccccc1)c1nnc(C)n1-2 [1g] |  | 0.1 h | 34.1 µM (≈ 16.7 µg/mL) |  |  | 
Cc1sc2c(c1C)C(c1ccc(Cl)cc1)=N[C@@H](CC(=O)Nc1ccc(O)cc1)c1nnc(C)n1-2 [1c, birabresib, reference compound] |  |  |  | 97.3% |  | 
COC(=O)C(Cc1c[nH]cn1)NC(=O)C[C@@H]1N=C(c2ccc(Cl)cc2)c2c(sc(C)c2C)-n2c(C)nnc21 (some centres unmarked) [1j] | 0.0 10^−6cm/s | 4.7 h | 68.4 µM (≈ 37.8 µg/mL) | 92.7% |  | half-life [5]: 24.7 h; IC50 [10]: 6.5 nM
Cc1sc2c(c1C)C(c1ccc(Cl)cc1)=N[C@@H](CC(=O)NCc1c[nH]nn1)c1nnc(C)n1-2 [1d] |  | 0.6 h | 57.4 µM (≈ 27.6 µg/mL) |  |  | IC50 [8]: 8.6 nM; IC50 [10]: 1.3 nM
Cc1sc2c(c1C)C(c1ccc(Cl)cc1)=N[C@@H](CC(=O)NCC(=O)O)c1nnc(C)n1-2 [1l] | 0.5 10^−6cm/s | 11.3 h | 66.4 µM (≈ 30.4 µg/mL) |  |  | IC50 [11]: > 8850 nM
Cc1sc2c(c1C)C(c1ccc(Cl)cc1)=N[C@@H](CC(=O)NCc1ncco1)c1nnc(C)n1-2 [1i] |  |  |  |  | 0.8 nM | 
Cc1sc2c(c1C)C(c1ccc(Cl)cc1)=N[C@@H](CC(=O)Nc1nncs1)c1nnc(C)n1-2 [1q] |  |  |  |  | 3.6 nM | IC50 [8]: 1.6 nM; human plasma stability [12]: 100%; affinity in BROMOscan profiling [13]: high affinity for all BET isoforms; IC50 [14]: 6.6 nM; oral bioavailability in words [15]: high bioavailability; IC50 [16]: 6.5 nM; MYC protein abundance [17]: around 50%
Cc1sc2c(c1C)C(c1ccc(Cl)cc1)=N[C@@H](CC(=O)NCCO)c1nnc(C)n1-2 [1n] |  | 3.2 h | 76.1 µM (≈ 33.8 µg/mL) |  |  | half-life [5]: > 100 h; IC50 [18]: 8.8 nM; Papp B→A [7]: 8.33 ×10⁻⁶ cm/s; Papp [7]: 0.7 ×10⁻⁶ cm/s

— paper PMC10165889 (European journal of medicinal chemistry, 2023)
